From patent publication US12344599B2, “Prodigiosin analogs and methods of use” (Institute For Cancer Research, priority 2016, dated 2025)
Read-outs that look alike come from different tables or passages of the source. Each block holds one compound with its values, some of them ahead of it. * marks the point of attachment. Cbz = O=C(OCc1ccccc1)*; CH2F = FC*

Assays:
Format in all cases: cell-based, human
[1] = system: γ-H2AX in HT29 and SW480 cells; assay: γ-H2AX DNA damage marker, western blot and immunofluorescence staining
Procedure: (§1) After treatment, protein lysates were collected for Western blot analysis. A total of […] of protein was used for SDS-PAGE. After primary and secondary antibody incubations, the signal was detected by a chemiluminescence detection kit, imaged by Syngene (Imgen Technologies). Antibodies for PUMA (for IHC), p53 (Santa Cruz Biotechnology), caspase 8, cleaved caspase 8, caspase 9, caspase 3, cleavage PARP, eIF2α, p-eIF2α (Ser51), CHOP, ATF4, DR5, FOXO3a, p-FOXO3a (Ser253), NF-κB p65, p-NF-κB p65 (Ser536), c-Jun, p-c-Jun (Ser63), JNK, p-JNK (Thr183/Tyr185), PUMA (for WB), c-Myc, phosphor-S62-cMyc (Cell Signaling Technology), Noxa, p21 (Calbiochem), p73 (Bethyl laboratories Inc), Ran (BD Biosciences), […] (Sigma).
A total of 5×10^4 cells were seeded in each well of 8-well chamber slides. After treatment, cells were fixed and permeabilized by methanol:acetone (1:1) for 20 minutes at −20° C. Fixed cells were blocked by 2% BSA for 1 hour, followed by primary antibody incubation for 1 hours and Cy3-conjuated secondary antibody incubation for 1 hour at room temperature. After washing, cells were stained with DAPI for 10 minutes at room temperature. Cells were mounted, and examined by fluorescence microscopy.
DNA damage induces the p53 pathway and leads to cell apoptosis. To study whether the p53 pathway restoration by compound PG3-Oc is due to DNA damage, the uptake and localization of PG3-Oc was investigated in cells. PG3-Oc and prodigiosin are red fluorescent compounds, and their localization in live cells can be monitored by fluorescence microscopy. PG3-Oc and prodigiosin rapidly entered cells within 2 hours of incubation and remained in the cytosol at the 8-hour time point in HT29 and SW480 cells (FIG. 46). […] Baldino, et al. reported that prodigiosin localized to the cytoplasm, but not within the nucleus, and no γ-H2AX signal was detected in A549 cancer cells (Baldino et al., Bioorg Med Chem Lett, 2006, 16, 701-704). […]

[2] = system: SW480, DLD1 and p53-null cell line HCT116; assay: CellTiter-Glo luminescent cell viability assay (Example 1)
Procedure: SW480, DLD-1, DLD1-p73KD, HCT116, and p53-null HCT116, MRC5 and Wi38 cells were seeded at 5,000 cells per well on 96-well plates. […] Then, cells were mixed with an equal volume of CellTiter-Glo® reagents (Promega), following the manufacturer's protocol, and bioluminescence imaging was measured using the IVIS imager.

p53-target genes = assay: Western blotting of p53-target genes (Example 1)
Procedure: After treatment, protein lysates were collected for Western blot analysis. Twenty-five micrograms of protein were used for SDS-PAGE. After primary and secondary antibody incubations, the signal was detected with a chemiluminescent detection kit, followed by autoradiography or Syngen. […] In FIG. 10, p53-null HCT116 cells were treated with P01 and P306, alone or in combination with SiCon or SiTAp73, in various concentrations for 6 hours, and tested for p73 (C.S.), p73 (Bethyl), P63-α, p53, DR5, Puma, P21, and Ran proteins.

c-Myc and PUMA = assay: Western blot of c-Myc, PUMA and p53 target genes; settings: HT29 cells
Procedure: as §1
To test this hypothesis, two ERK1/2 inhibitors that act by different mechanisms were used. U0126 is an indirect ERK1/2 inhibitor. It inhibits MEK1 kinase and blocks the phosphorylation of ERK1/2. […] Consistent with a previous publication (Choi et al., Genes Dev, 2010, 24, 1236-1241), SCH772984 can inhibit ERK1/2 function after ERK1/2 is phosphorylated (FIG. 73), and the same is observed for PG3-Oc (FIG. 73).

HT29 cells = assay: Flow cytometry sub-G1 (PI staining) analysis; settings: HT29, 20 μM Z-VAD-FMK co-treated with 1 μM PG3-Oc, 48 hours
Procedure: • 1) Cell lines: HT29, SW480, DLD-1, HCT116, and p53-null HCT116 cells, H1975, MDA-MD-231, U251, FaDu, CAL-27, PANC-1, Aspc-1, and MRC5 were obtained from the ATCC and cultured as recommended. Cells were regularly authenticated by bioluminescence, growth, and morphologic observation. The cells were routinely examined for Mycoplasma and all cell lines underwent STR authentication. • 2) Western blotting: After treatment, protein lysates were collected for Western blot analysis. 15 μg of protein was used for SDS-PAGE. After primary and secondary antibody incubations, the signal was detected by chemiluminescent detection kit, imaged by Syngene (Imgen Technologies). Antibodies for Puma, FLIPL/S and p53 (Santa Cruz Biotechnology), cleaved caspase 8, caspase 9, caspase 3, cleavage PARP, eIF2α, p-eIF2α(Ser51), CHOP, ATF4, DR5, FOXO3a, p-FOXO3a(Ser253), NF-κB p65, p-NF-κB p65(Ser536), c-Jun, p-c-Jun(Ser63), JNK, p-JNK(Thr183/Tyr185) (Cell Signaling Technology), Noxa, p21 (Calbiochem), p73 (Bethyl laboratories Inc), Ran (BD Biosciences), […] (Sigma). • 3) Cell viability assay: Cells were seeded in 96-well plate (6×10^3 cells/well). Cells were treated with different concentrations of compounds or dimethyl sulfoxide (DMSO) control for 72 hours. The cell viability was assessed by CellTiterGlo bioluminescent cell proliferation assay (Promega), following the manufacturer's protocol. Bioluminescence imaging was measured using the IVIS imager. Percentage of cell viability (mean±SEM) at each dose was calculated against the respective DMSO control. The IC50 values were determined from the sigmoidal dose-response curves using GraphPad Prims4. • 4) Caspase activity assay: Cells were seeded in 96-well plate (1×10^4 cells/well). Cells were treated with different concentrations of compounds or DMSO control for 24 hours. The caspase 3/7 activity was assessed by Caspase-Glo® 3/7 Assay kit (Promega), following the manufacturer's protocol. Bioluminescence imaging was measured using the IVIS imager. Caspase activity was normalized to cell numbers and compared to those of DMSO treatment as control in each cell line. Data is reported as mean RLU+SEM (n=3). • 5) Colony formation assays: Five hundred cells were seeded per well on 6-well plates and treated with different concentrations of compounds for 24 hours, then, cells were cultured with drug-free complete medium for 2 weeks with fresh medium changed every 7 days. Cells were fixed with 10% formalin and stained with 0.05% crystal violet at the end of 2 weeks period of cell culture. • 6) Flow cytometry assay: • a) Cell Cycle Analysis: Propidium iodide (PI) staining and flow cytometry were used to determine the degree of cellular apoptosis. Cells were seeded at 3×10^5 cells/well in six-well plates. Cells were treated with PG3-Oc for 48 hours. Cells were harvested, fixed by 70% ethanol, and stained by propidium iodide, then flow cytometry was performed as previously described (Smithen et al., Org. Biomol. Chem., 2013, 11, 62-68). The percentage of hypodiploid cells (sub-G1) was used to quantify dead cells in apoptosis assays. • b) Early apoptosis detection: Cells were seeded at 3×10^5 cells/well in six-well plates. Cells were treated with PG3-Oc for 48 hours. […]

Compound: CCc1c2c(nc3ccc(OC(=O)N4CCC(N5CCCCC5)CC4)cc13)-c1cc3c(c(=O)n1C2)COC(=O)[C@]3(O)CC [CPT-11, Irinotecan]
induction of 65-H2AX (DNA damage marker) / foci formation [1]: significantly induced

IC50 values ([2]; SW480, DLD1, p53-null HCT116, 72 hours): within nanomolar range
Compound: CCc1c(C)[nH]c(/C=C2\N=C(c3ccc[nH]3)C=C2OC)c1C [P301]
induction of cell death ([2]; SW480, DLD1, p53-null HCT116): potently induced cell death
expression of p53-target genes (p53-target genes): induced the expression of p53-target genes via p73

Compound: O=C(Nc1ccc2[nH]nc(-c3ccncc3)c2c1)[C@@H]1CCN(CC(=O)N2CCN(c3ccc(-c4ncccn4)cc3)CC2)C1 [SCH772984]
effect on c-Myc and PUMA (c-Myc and PUMA): potently induced the downregulation of c-Myc and the upregulation of PUMA
effect on p53 target genes DR5, p21 and Noxa (c-Myc and PUMA): did not induce DR5, shown mild upregulation of p21 and suppressed Noxa expression

Compound: N#CC(=C(/N)Sc1ccccc1N)/C(C#N)=C(\N)Sc1ccccc1N [U0126]
effect on c-Myc and PUMA (c-Myc and PUMA): potently induced the downregulation of c-Myc and the upregulation of PUMA

Compound: CCCCCc1cc(/C=C2\N=C(c3ccc[nH]3)C=C2OC)[nH]c1C [prodigiosin, Prodigiosin]
induction of 65-H2AX (DNA damage marker) / foci formation ([1]; HT29 and SW480, 8-hour treatment): did not induce

Compound: Cbz-Val-Ala-Asp-CH2F [reference compound]
formation of a sub-G1 population induced by PG3-Oc (HT29 cells): completely blocked
